EC50 data for eight compounds are collected here from patent US20120045393A1 (priority 2009, published 2012).

As usually defined, the EC50 is the concentration that produces a half-maximal response. Lower therefore signals an effect from little substance.

Structures are written as SMILES. Like-named read-outs stand apart in the source and are kept apart here. Non-standard residues stand in square brackets, D forms with d. Residues, ends and D or L forms follow the SMILES beside them. *: point of attachment. DOTA = O=C(O)CN1CCN(CC(=O)O)CCN(CC(=O)*)CCN(CC(=O)O)CC1; Bpa = N[C@@H](Cc1ccc(C(=O)c2ccccc2)cc1)C(=O)O; d2Nal = N[C@H](Cc1ccc2ccccc2c1)C(=O)O; azaGly = NNC(=O)O

In this test the test system is LHRH binding sites on human ovarian cancer cells (EFO-27).
Where [1] appears, read: Table 5: modifications of amino acids at positions 1 and 2, in vitro binding on EFO-27 cells.
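Also: Cell-associated radioactivity on confluent EFO-27 monolayers in 96-well plates, measured by microplate scintillation counting.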

As to `CN(CC(=O)N[C@@H](Cc1c[nH]cn1)C(=O)N[C@@H](Cc1c[nH]c2ccccc12)C(=O)N[C@@H](CO)C(=O)N[C@@H](Cc1c[nH]cn1)C(=O)N[C@H](CCCNC(=N)N)C(=O)N[C@@H](Cc1c[nH]c2ccccc12)C(=O)N[C@H](C(=O)N1CCC[C@H]1C(=O)NNC(N)=O)C(c1ccccc1)c1ccccc1)C(=O)CN1CCN(CC(=O)O)CCN(CC(=O)O)CCN(CC(=O)O)CC1` [BRU-2721], the EC50 is 4550 nM.

For the compound `N=C(N)NCCC[C@H](NC(=O)[C@@H](Cc1ccc2ccccc2c1)NC(=O)CN1CCN(CC(=O)O)CCN(CC(=O)O)CCN(CC(=O)O)CC1)C(=O)N[C@@H](Cc1c[nH]c2ccccc12)C(=O)N[C@@H](CO)C(=O)N[C@@H](Cc1c[nH]cn1)C(=O)N[C@H](CCCNC(=N)N)C(=O)N[C@@H](Cc1c[nH]c2ccccc12)C(=O)N[C@@H](Cc1ccc(C(=O)c2ccccc2)cc1)C(=O)N1CCC[C@H]1C(=O)N[C@H](CO)Cc1ccccc1` [compound 2983], the midpoint of the response, the EC50, lay at 450 nM.

Under setting [1], `CN(CC(=O)N[C@@H](Cc1c[nH]cn1)C(=O)N[C@@H](Cc1c[nH]c2ccccc12)C(=O)N[C@@H](CO)C(=O)N[C@@H](Cc1c[nH]cn1)C(=O)N[C@H](CCCNC(=N)N)C(=O)N[C@@H](Cc1c[nH]c2ccccc12)C(=O)N[C@@H](Cc1ccc(C(=O)c2ccccc2)cc1)C(=O)N1CCC[C@H]1C(=O)NNC(N)=O)C(=O)CNC(=O)CN1CCN(CC(=O)O)CCN(CC(=O)O)CCN(CC(=O)O)CC1` [BRU-2717] displayed an EC50 of 1550 nM.

`CN(CC(=O)N[C@@H](Cc1c[nH]cn1)C(=O)N[C@@H](Cc1c[nH]c2ccccc12)C(=O)N[C@@H](CO)C(=O)N[C@@H](Cc1c[nH]cn1)C(=O)N[C@H](CCCNC(=N)N)C(=O)N[C@@H](Cc1c[nH]c2ccccc12)C(=O)N[C@@H](Cc1ccc(Oc2ccc(O)cc2)cc1)C(=O)N1CCC[C@H]1C(=O)NNC(N)=O)C(=O)CN1CCN(CC(=O)O)CCN(CC(=O)O)CCN(CC(=O)O)CC1` [BRU-2823] had an EC50 of 1610 nM.

In the case of `CN(CC(=O)N[C@@H](CCCNC(=N)N)C(=O)N[C@@H](Cc1c[nH]c2ccccc12)C(=O)N[C@@H](CO)C(=O)N[C@@H](Cc1c[nH]cn1)C(=O)N[C@H](CCCNC(=N)N)C(=O)N[C@@H](Cc1c[nH]c2ccccc12)C(=O)N[C@@H](Cc1ccc(C(=O)c2ccccc2)cc1)C(=O)N1CCC[C@H]1C(=O)NNC(N)=O)C(=O)CN1CCN(CC(=O)O)CCN(CC(=O)O)CCN(CC(=O)O)CC1` [BRU-2817], the EC50 under setting [1] was 1700 nM.

As for `N=C(N)NCCC[C@H](NC(=O)[C@@H](Cc1ccc2ccccc2c1)NC(=O)CN1CCN(CC(=O)O)CCN(CC(=O)O)CCN(CC(=O)O)CC1)C(=O)N[C@@H](Cc1c[nH]c2ccccc12)C(=O)N[C@@H](CO)C(=O)N[C@@H](Cc1c[nH]cn1)C(=O)N[C@H](CCCNC(=N)N)C(=O)N[C@@H](Cc1c[nH]c2ccccc12)C(=O)N[C@@H](Cc1ccc(C(=O)c2ccccc2)cc1)C(=O)N1CC[C@H]1C(=O)NNC(N)=O` [compound 2993], the EC50 (EFO-27 cells, competition with [125I-Tyr8]BRU-2477, 90 min) turned out to be 380 nM.

Compound `CC(C)C[C@H](NC(=O)[C@H](CCCNC(=N)N)NC(=O)[C@@H](Cc1ccc2ccccc2c1)NC(=O)CN1CCN(CC(=O)O)CCN(CC(=O)O)CCN(CC(=O)O)CC1)C(=O)N[C@@H](CO)C(=O)N[C@@H](Cc1c[nH]cn1)C(=O)N[C@H](CCCNC(=N)N)C(=O)N[C@@H](Cc1c[nH]c2ccccc12)C(=O)N[C@@H](Cc1ccc(C(=O)c2ccccc2)cc1)C(=O)N1CCC[C@H]1C(=O)NNC(N)=O` [compound 3108] ({DOTA}-[d2Nal]RLSH[dR]W[Bpa]P[azaGly]-NH2) came in with an EC50 of 560 nM.

`N=C(N)NCCC[C@H](NC(=O)[C@H](N)Cc1ccc2ccccc2c1)C(=O)N[C@@H](Cc1c[nH]c2ccccc12)C(=O)N[C@@H](CO)C(=O)N[C@@H](Cc1c[nH]cn1)C(=O)N[C@H](CCCNC(=N)N)C(=O)N[C@@H](Cc1c[nH]c2ccccc12)C(=O)N[C@@H](Cc1ccc(C(=O)c2ccccc2)cc1)C(=O)N1CCC[C@H]1C(=O)NCCOCCNC(=O)CN1CCN(CC(=O)O)CCN(CC(=O)O)CCN(CC(=O)O)CC1` [compound 2991] returned an EC50 of 210 ± 60 nM.
